Experimental data as given in patent US7321027B2, “Small technetium-99m and rhenium labeled agents and methods for imaging tumors” (President and Fellows of Harvard College, priority 2000, dated 2008).

Legend:
[1] = system: B16/F0 murine melanoma cells; assay: In-vitro tumor-cell uptake, melanoma cells; assay type: cell-based; settings: 37° C., B16/F0 cell line
Protocol: In-Vitro Tumor-Uptake Studies. Tumor-cell uptake studies in B16/F0 murine melanoma cells were performed with complexes Tc-(Compound A-D and H-M) at 37° C. and 4° C. Additionally, tumor-cell uptake of complex Tc-(Compound A) was investigated in another rapidly dividing MCF-7 human breast cancer cell line.
In-Vitro Cell Studies. Murine B16/F0 melanoma cells and human MCF-7 breast cancer cells were obtained from American Type Culture Collection, Manassas Va., (ATCC) and were grown in T-175 flasks in 14 mL Dulbecco's Modified Eagle Medium (D-MEM; Gibco, Life Technology, Gaithersburg, Md.) containing 4500 mg/L D-glucose, L-glutamine, and pyridoxine hydrochloride, 110 mg/L sodium pyruvate, 10% fetal bovine serum (FBS), 0.2% gentamicin and 0.5% penicillin-streptomycin solution. All cells were harvested from cell culture flasks by trypsinization with 1 mL trypsin-EDTA solution (0.25% trypsin, 1 mM EDTA×4 Na) (Gibco). After being washed with 12 mL Dulbecco's Phosphate-Buffered Saline (PBS) (Gibco), pH 7.2 (Ca^2+- and Mg^2+-free; g/L KCl, 0.20; KH2PO4, 0.20; NaCl, 8.00; Na2HPO4, 1.15), the cells were counted and resuspended in 8 mL S-MEM (Gibco) (Ca^2+ free, with reduced Mg^2+ content) and stored at 4° C. until use.
For in-vitro tumor-cell accumulation studies, 5×10^6 cells in polypropylene test tubes were incubated at 37° C. or 4° C., with intermittent agitation with 1-2 μCi (5 μL) ^99mTc-complex Tc-(Compound A-D) in a total volume of 350 μL S-MEM. At appropriate time intervals the tubes were vortexed and 8-μL samples were layered on 350 μL cold FBS in a 400-μL Eppendorf microcentrifuge tube. After centrifugation at 15,000 rpm for 2 min, the tubes were frozen in a dry ice-acetone bath. While still frozen, the bottom tip of the microcentrifuge tube containing the cell pellet was cut and placed in a counting tube. The remaining portion of the tube with the supernatant was placed in a separate counting tube. Both fractions were counted for radioactivity in a γ-counter (WALLAC, 1480 WIZARD 3″™). The amount of supernatant in the cell pellet was determined to be <1% in separate experiments. The percentage cell uptake of the ^99mTc-complex was calculated as: % uptake=[cpm(pellet)]/[cpm(pellet)+cpm(supernatant)]×100

[2] = Determination of lipophilicity and pKa values by HPLC; assay type: physicochemical; settings: HPLC method
Protocol: The physicochemical parameters of the rhenium complexes, i.e. lipophilicity log P, log D(pH 7.4), and pKa (Table 2) were determined using HPLC methods (Braumann, T.; Grimme, L. H. Determination of Hydrophobic Parameters for Pyridazinone Herbicides by Liquid-Liquid Partition and Reversed-Phase High-Performance Liquid Chromatography. J. Chromatogr. 1981, 206, 7-15; Stytli, C.; Theobald, A. E. Determination of Ionization Constants of Radiopharmaceuticals in Mixed Solvents by HPLC. Appl. Radiat. Isot., 1987, 38, 701-708; Johannsen, B.; Scheunemann, M.; Spies, H.; Brust, P.; Wober, J.; Syhre, R.; Pietzsch, H.-J. Technetium(V) and Rhenium(V) Complexes for 5-HT2A Serotonin Receptor Binding: Structure-Affinity Considerations. Nucl. Med. Biol., 1996, 23, 429-438; and Johannsen, B.; Berger, R.; Brust, P.; Pietzsch, H.-J; Scheunemann, M.; Seifert, S.; Spies, H.; Syhre, R. Structural Modification of Receptor-Binding Technetium-99m Complexes in Order to Improve Brain Uptake. Eur. J. Nucl. Med. 1997, 24, 316-319). […] Since log D(pH 7.4) is a composite measure of log P and pKa, the log D(PH 7.4) of Re-Compound B (1.9) is also higher than that of Re-Compound A (1.1). […] With pKa values >9 for complexes Re-Compound C and Re-Compound D, the resulting low log D(PH 7.4) values of −0.5 (Re-Compound C) and 0.7 (Re-Compound D) are not surprising, since the complexes would exist in a protonated form at pH 7.4.
Determination of Lipophilicity and pKa Values. The lipophilicity and pKa values of all complexes were determined using HPLC methods described previously (Stylli, C.; Theobald, A. E. Determination of Ionization Constants of 4 Radiopharmaceuticals in Mixed Solvents by HPLC. Appl. Radiat. Isot., 1987, 38, 701-708; Johannsen, B.; Scheunemann, M.; Spies, H.; Brust, P.; Wober, J.; Syhre, R.; Pietzsch, H.-J. Technetium(V) and Rhenium(V) Complexes for 5-HT2A Serotonin Receptor Binding: Structure-Affinity Considerations. Nucl. Med. Biol., 1996, 23, 429-438; and Johannsen, B.; Berger, R.; Brust, P.; Pietzsch, H.-J.; Scheunemann, M.; Seifert, S.; Spies, H.; Syhre, R. Structural Modification of Receptor-Binding Technetium-99m Complexes in Order to Improve Brain Uptake. Eur. J. Nucl. Med. 1997, 24, 316-319). […] The mobile phase was acetonitrile:phosphate buffer (0.01 M), 3:1, v/v, with the aqueous buffer adjusted to the desired pH between 3 and 11. The capacity factor (k′) was calculated for each determination (Braumann, T.; Grimme, L. H. Determination of Hydrophobic Parameters for Pyridazinone Herbicides by Liquid-Liquid Partition and Reversed-Phase High-Performance Liquid Chromatography. J. Chromatogr. 1981, 206, 7-15; El Tayer, N.; van der Waterbeemd, H.; Testa, B. Lipophilicity Measurements of Protonated Basic Compounds by Reversed-Phase High-Performance Liquid Chromatography. II. Procedure for the Determination of a Lipophilic Index Measured by Reversed-Phase High Performance Liquid Chromatography. J. Chromatogr. 1985, 320, 305-312; and Minick, D. J.; Frenz, J. H.; Patrick, M. A.; Brent, D. A. A Comprehensive Method for Determining Hydrophobicity Constants by Reversed-Phase High-Performance Liquid Chromatography. J. Med. Chem., 1988, 31, 1923-1933) and the partition coefficient at a given pH (D or log D) were calculated from the equation: log D=a log k′+b where the parameters a and b are predetermined using standard amines. The fitted points of inflection from the sigmoidal DHPLC/pH profiles permit calculation of the pKHPLC(Stylli, C.; Theobald, A. E. Determination of Ionization Constants of Radiopharmaceuticals in Mixed Solvents by HPLC. Appl. Radiat. Isot., 1987, 38, 701-708). The aqueous ionization constants pKa were calculated from the pKHPLC values after correction with a predetermined correction factor obtained using standard amine compounds. Log P values of the neutral complexes were estimated from the respective upper plateau of the sigmoidal log D/pH curve in the alkaline range.

log P [2] | pKa [2] | log D(pH 7.4) [2] | Structure (SMILES) | maximal cell uptake [1]
3.3 | 7.7 | 1.9 | CCCCN(CCCC)CCN1CC[S][99Tc]2(=[O])[S]CC[N]2C(=O)C1 (stereo not shown) [Tc-(Compound B)] | 12%
– | 7.7 | ≈ 1 | CCN(CC)CCN1CC[S][99Tc]2(=[O])[S]CC[N]2C(=O)C1 (stereo not shown) [Tc-(Compound A)] | 43%
